Data: US20010055756A1, “Internal de novo initiation sites of the HCV NS5B polymerase and use thereof” (priority 2000, published 2001)
“Also recorded” adds a separate entry of the source.

Test system: HCV NS5B polymerase
Assay: Testing of GTP analogs in the NS5B de novo initiation reaction with RNA template 24-1
Type: biochemical, hepatitis C virus
Details: analog at 500 μM added to reactions with 100 μM or 500 μM GTP, 5 nM NS5B, 10 nM template 24-1, 2.5 h
Description: Unless indicated otherwise, the standard reactions that incorporated [α-^33P]UTP contained 5 nM of purified NS5B and 10-50 nM of the indicated RNA template (i.e.: 24, 24-1, 128-4, 130-21, 150-41 or mutant templates) incubated at 22° C. for 2.5 h in 22.5 mM Tris-HCl pH 7.5, 5 mM MgCl2, 1 mM EDTA, 1.5 mM DTT, 30 mM NaCl, 0.33% N-Dodecyl-β-D-Maltoside, 0.01% Igepal CA-630, 5% DMSO, 5 μCi [α-^33P]UTP, 10 μM UTP, 500 μM of the three other rNTPs and 0.16 U/μl RNase inhibitor (Promega). NS5B polymerase reactions that incorporated γ-^32P into the radioactively labeled 5′product were supplemented with either 8 μCi of [γ-^32P]GTP or [γ-^32P]ATP in place of [α-^33P]UTP in the standard reaction. The reactions were then supplemented with PK buffer (50 mM Tris HCl pH 7.5 150 mM NaCl, 0.5% SDS) and treated with Proteinase K (0.8 μg /μl) and glycogen (0.1 μg/μl) for 30 min at 37° C. RNA was extracted with phenol-chloroform and precipitated with isopropanol. The RNA pellet was dissolved in 10-15 μl of denaturing solution (80% formamide, 10 mM EDTA), heated for 10 min at 70-75° C. and analysed on denaturing 8 M urea/5% polyacrylamide gels. Gels were dried and radioactive products visualized with a phospho-imager (Molecular Dynamics).
m7GpppG and GpppG were purchased from Ambion; Ribavirin monophosphate and Ribavirin triphosphate were purchased from Chemgenes (Ashland, Mass.); ddGTP was from Amersham; Caged GTP was from Molecular Probes. All other GTP analogs were from Sigma/Aldrich. Each of the analogs was added (at 500 μM) to the NS5B polymerization reaction containing either: 100 μM or 500 μM GTP (reference reactions). Stimulation by GTP itself, as a positive control, was performed such that the reactions then contained 600 μM or 1 mM GTP (respectively labeled as the +500 μM GTP bars). The standard polymerase reactions incorporating [α-^33P]UTP were incubated for 2.5 h in the presence of 5 nM NS5B and 10 nM of RNA template 24-1. The reactions were stopped by spotting 8 μl on a DE81 filters which were then washed extensively (3×) with 1M NaPO4 pH 7 and dried. The radioactivity incorporated into product RNA that was retained on the DE-81 filters was measured in a scintillation counter. The effect of the various analogs on the reaction is represented by the fold stimulation of activity compared to 100μM or 500μM GTP (reference reaction bars). 5′-p-FSBA=5′-p-fluorosulfonyl-benzoyladenosine

Nc1nc2c(ncn2[C@@H]2O[C@H](COP(=O)(O)O)[C@@H](O)[C@H]2O)c(=O)[nH]1 [GMP]
effect on de novo initiation reaction (fold stimulation relative to GTP alone): stimulating

Nc1nc2c(ncn2C(C=O)OC(C=O)COP(=O)(O)OP(=O)(O)OP(=O)(O)O)c(=O)[nH]1.[Na] (stereo not drawn) [GTP 2′3′-dialdehyde]
effect on de novo initiation reaction (fold stimulation relative to GTP alone): clear inhibitor; also recorded: inhibiting
effect on de novo initiation reaction (fold stimulation relative to GTP alone) (listed as GTP 2′3′dialdehyde): inhibitory

Nc1nc2c(ncn2[C@@H]2O[C@H](COP(=O)(O)OP(=O)(O)OP(=O)(O)O)[C@@H](O)[C@H]2O)c(=O)[nH]1 [GTP]
effect on de novo initiation reaction (fold stimulation relative to GTP alone): activation

Nc1nc2c(ncn2[C@@H]2O[C@H](COP(=O)(O)OP(=O)(O)OP(=O)(O)OC[C@H]3O[C@@H](n4cnc5c(=O)[nH]c(N)nc54)[C@H](O)[C@@H]3O)[C@@H](O)[C@H]2O)c(=O)[nH]1 [GpppG]
effect on de novo initiation reaction (fold stimulation relative to GTP alone): most efficient analogs in stimulating de novo initiation; also recorded: stimulating; also recorded: stimulate

CC(OP(=O)(O)OP(=O)(O)OP(=O)(O)OC[C@H]1O[C@@H](n2cnc3c(=O)[nH]c(N)nc32)[C@H](O)[C@@H]1O)c1ccccc1[N+](=O)[O-] (stereo partly drawn) [caged-GTP]
effect on de novo initiation reaction (fold stimulation relative to GTP alone): stimulating

Nc1nc2c(ncn2[C@@H]2O[C@H](CO)[C@@H](O)[C@H]2O)c(=O)[nH]1 [guanosine]
effect on de novo initiation reaction (fold stimulation relative to GTP alone): stimulating; also recorded: stimulate

Cn1c[n+]([C@@H]2O[C@H](COP(=O)(O)OP(=O)([O-])OP(=O)(O)OC[C@H]3O[C@@H](n4cnc5c(=O)[nH]c(N)nc54)[C@H](O)[C@@H]3O)[C@@H](O)[C@H]2O)c2nc(N)[nH]c(=O)c21 [m7 GpppG, 7-methyl GpppG]
effect on de novo initiation reaction (fold stimulation relative to GTP alone): most efficient analogs in stimulating de novo initiation
effect on de novo initiation reaction (fold stimulation relative to GTP alone) (listed as 7-methyl GpppG): stimulating; also recorded: stimulate

NC(=O)c1ncn([C@@H]2O[C@H](CO[P@@](=O)(O)O[P@](=O)(O)OP(=O)(O)O)[C@@H](O)[C@H]2O)n1 [ribavirin tri-phosphate, Ribavirin triphosphate]
effect on de novo initiation reaction (fold stimulation relative to GTP alone): moderate level of inhibition
effect on de novo initiation reaction (fold stimulation relative to GTP alone) (listed as ribavirin triphosphate): inhibiting; also recorded: inhibitory

GDP-γ-S
effect on de novo initiation reaction (fold stimulation relative to GTP alone): stimulating
